Test results taken from US20220281915A1, “COMPOSITIONS COMPRISING BOVINE ADRENAL MEDULLA 8-22 (BAM8-22) PEPTIDE ANALOGS AND METHODS OF USE” (OKYO Pharma Limited, priority 2019, published 2022).
Read-outs that look alike come from different tables or passages of the source. Non-standard residues stand in square brackets, D forms with d. Residues, ends and D or L forms follow the SMILES beside them. No end group written: not given here. Nle = CCCC[C@H](N)C(=O)O

What was measured:
[1] = biological target: human MRGPRX1 receptor (Homo sapiens, UniProt Q96LB2); assay: DiscoverX calcium mobilization cell culture assay, agonist mode (FLIPR Tetra); format: cell-based; settings: Table 2 initial screening data, agonist format, peptides
human MRGPRX1 receptor, sequence (Q96LB2 whole entry): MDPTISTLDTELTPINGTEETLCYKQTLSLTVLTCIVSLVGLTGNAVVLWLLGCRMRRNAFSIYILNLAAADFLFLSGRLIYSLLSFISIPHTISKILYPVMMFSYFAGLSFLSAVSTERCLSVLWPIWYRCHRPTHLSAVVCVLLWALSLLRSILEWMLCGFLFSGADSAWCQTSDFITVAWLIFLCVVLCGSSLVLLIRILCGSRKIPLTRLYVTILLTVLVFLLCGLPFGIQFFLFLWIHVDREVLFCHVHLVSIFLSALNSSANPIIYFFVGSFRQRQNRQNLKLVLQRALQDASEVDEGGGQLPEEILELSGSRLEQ
Experimental: DiscoverX® Calcium cell line overexpressing naturally Gq coupled, wildtype human MRGPRX1 receptor was used to detect calcium mobilization in response to agonist stimulation of the receptor. Cells were plated in a 384-well plate and incubated overnight at 37° C. and 5% CO2 to allow the cells to attach and grow. Culture media was removed and replaced with dye loading buffer from the Calcium No WashPLUS detection kit according to the recommended protocol. Cells were incubated with peptides to induce response and calcium mobilization was detected using a FLIPR® Tetra (Molecular Devices, Inc.).
Compound activity was analyzed using Chemical and Biological Information System (CBIS) data analysis suite (ChemInnovation, CA). For agonist mode assays, percentage activity is calculated using the following formula: % Activity=100%×(mean RFU of test sample−mean RFU of vehicle control)/(mean MAX RFU control ligand−mean RFU of vehicle control). […] RFU means relative fluorescence units.

[2] = tested on: mechanical allodynia; settings: rat, spinal nerve ligation, intrathecal; cited from earlier work
[3] = tested on: mechanical allodynia; settings: mouse, chronic constriction injury, intrathecal; cited from earlier work

EC50 [1]	Compound	baseline nociception [2]	mechanical allodynia [2]	baseline nociception [3]	mechanical allodynia [3]
11.1 nM	CCCC[C@H](NC(=O)[C@H](Cc1c[nH]c2ccccc12)NC(=O)[C@H](Cc1c[nH]c2ccccc12)NC(=O)[C@H](CCC(=O)O)NC(=O)[C@@H]1CCCN1C(=O)[C@H](CCCNC(=N)N)NC(=O)CNC(=O)[C@@H](N)C(C)C)C(=O)N[C@@H](CC(=O)O)C(=O)N[C@@H](Cc1ccc(O)cc1)C(=O)N[C@@H](CCC(N)=O)C(=O)N[C@@H](CCCCN)C(=O)N[C@@H](CCCNC(=N)N)C(=O)N[C@@H](Cc1ccc(O)cc1)C(=O)NCC(=O)O [OK-205, VGRPEWW-Nle-DYQKRYG (SEQ ID NO: 22)] (H-VGRPEWW[Nle]DYQKRYG-OH; N-terminus and C-terminus assumed)				
1.02 nM	CSCC[C@H](NC(=O)[C@H](Cc1c[nH]c2ccccc12)NC(=O)[C@H](Cc1c[nH]c2ccccc12)NC(=O)[C@H](CCC(=O)O)NC(=O)[C@@H]1CCCN1C(=O)[C@H](CCCNC(=N)N)NC(=O)CNC(=O)[C@H](N)C(C)C)C(=O)N[C@@H](CC(=O)O)C(=O)N[C@@H](Cc1ccc(O)cc1)C(=O)N[C@@H](CCC(N)=O)C(=O)N[C@@H](CCCCN)C(=O)N[C@@H](CCCNC(=N)N)C(=O)N[C@@H](Cc1ccc(O)cc1)C(=O)NCC(=O)O [OK-206, dV-GRPEWWMDYQKRY-dG (SEQ ID NO: 23)] (H-[dV]GRPEWWMDYQKRYG-OH; N-terminus and C-terminus assumed)				
0.67 nM	GRPEWWMDYQKRY [OK-203, GRPEWWMDYQKRY (SEQ ID NO: 3)]				
1580 nM	VGRPEWWMDSQKRYG [OK-202, VGRPEWWMDSQKRYG (SEQ ID NO: 54)]				
1.33 nM	VGRPEWWMDYQKRYG [BAM-8-22, VGRPEWWMDYQKRYG (SEQ ID NO: 21)]	did not affect baseline nociception	attenuates mechanical allodynia	did not affect baseline nociception	attenuates mechanical allodynia
